Data: PubChem BioAssay (NCI)
Several values for one entry are separate records, joined by “and”; a condition that tells them apart may be missing. Equal entries are not always repeated.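 Briefly, cells in 96-well plates were exposed to five compound concentrations for 48 h, and endpoints were estimated by linear interpolation. Abbreviation: GI50, concentration required for 50% inhibition of growth. TGI is the concentration that stops growth completely.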

Legend:
Assay in all cases: NCI-60 cell line screen, 48 h
CAKI-1 renal = test system: CAKI-1 renal
HL-60(TB) leukemia = test system: HL-60(TB) leukemia
M14 melanoma = test system: M14 melanoma
NCI-H460 lung = test system: NCI-H460 lung
NCI-H522 lung = test system: NCI-H522 lung
NCI/ADR-RES ovarian = test system: NCI/ADR-RES ovarian
SF-539 CNS = test system: SF-539 CNS
TK-10 renal = test system: TK-10 renal
U251 CNS = test system: U251 CNS
UACC-257 melanoma = test system: UACC-257 melanoma

| Structure (SMILES) | GI50 (CAKI-1 renal) | TGI (CAKI-1 renal) | GI50 (HL-60(TB) leukemia) | TGI (HL-60(TB) leukemia) | GI50 (M14 melanoma) | TGI (M14 melanoma) | GI50 (NCI-H460 lung) | TGI (NCI-H460 lung) | GI50 (NCI-H522 lung) | TGI (NCI-H522 lung) | GI50 (NCI/ADR-RES ovarian) | TGI (NCI/ADR-RES ovarian) | GI50 (SF-539 CNS) | TGI (SF-539 CNS) | GI50 (TK-10 renal) | TGI (TK-10 renal) | GI50 (U251 CNS) | TGI (U251 CNS) | GI50 (UACC-257 melanoma) | TGI (UACC-257 melanoma) |
| --- | --- | --- | --- | --- | --- | --- | --- | --- | --- | --- | --- | --- | --- | --- | --- | --- | --- | --- | --- | --- |
| O=C1NC(=O)C(c2cnc3ccccn23)=C1c1cn2c3c(cc(F)cc13)CN(C(=O)N1CCCCC1)CC2 | 1.24 µM | > 37.7 µM | 8.74 µM | 44.3 µM | 13.7 µM | 36.6 µM | 2.45 µM | 29.1 µM | 13.9 µM | 40.1 µM | 19.7 µM | > 100 µM | 2.74 µM | 24.4 µM | 0.0416 µM | 23.8 µM | 1.89 µM | 24.3 µM | 18.1 µM | 40.4 µM |
| CC(C)CCN1c2nc(Nc3cc(F)c(O)c(F)c3)ncc2N(C)C(=O)C1C (stereo not given) | 2.84 µM | > 77.1 µM | 2.14 µM | 6.47 µM | 4.59 µM | 26.1 µM | 3.91 µM | 17 µM | 2.52 µM | 22.4 µM | 7.81 µM | > 100 µM | 4.26 µM | 21.8 µM | 4.34 µM | > 87.2 µM | 5.55 µM | 58.6 µM | 17.1 µM | > 88.2 µM |
| C=C1C(=O)O[C@@H]2C[C@@H]1CC/C(C)=C/CC/C(C)=C/CC[C@@]2(C)O | 10.7 µM | 23.7 µM | 3.04 µM | 8.95 µM | 2.04 µM | 8.37 µM | 16.5 µM | 43.2 µM | 6.36 µM | 23.7 µM | 9.28 µM | 24.4 µM | 22.3 µM | 42.5 µM | – | – | 18.4 µM | 43.6 µM | 17.5 µM | 41.9 µM |
| N#CC(=C1C=CC(=NO)C=C1)c1ccccc1 | 1.23 µM | 11.5 µM | 1.19 µM | 4.1 µM | 1.74 µM | 4.36 µM | 1.3 µM | 6.11 µM | 1.02 µM | 4.68 µM | 1.49 µM | 11.8 µM | 0.92 µM | 3.37 µM | 4.47 µM | 13.3 µM | 1.45 µM | 8.72 µM | 2.12 µM | 17.8 µM |
| Cn1cc(CO)c2c1C(=O)C=C(N1CC1)C2=O | < 0.01 µM | < 0.0125 µM | 2.68 µM | 18.1 µM | < 0.01 µM | < 0.01 µM | < 0.01 µM | 1.27 µM | < 0.01 µM | 0.0775 µM | 0.0291 µM | 0.275 µM | < 0.01 µM | < 0.01 µM | 0.0215 µM | – | < 0.01 µM | 0.0726 µM | 0.0198 µM | 0.0692 µM |
| OC[C@H]1C[C@](O)(c2ccc(Cl)cc2)[C@@H](c2ccc(Cl)cc2)O1 | 27 µM | 79.3 µM | 17.6 µM | 49.2 µM | – | – | 20.2 µM | 48.7 µM | 26 µM | 52.9 µM | 30.3 µM | 87.5 µM | 23.3 µM | 53.8 µM | 30.5 µM | 84.3 µM | 24.8 µM | 69.5 µM | 21.2 µM | 44.7 µM |
| CCN(CC)c1ccc2c(c1)OC(N)=C(C#N)C2c1cc(OC)c2c(c1)OCO2 (stereo not given) | 0.108 µM | 59.1 µM | 0.0269 µM | 0.141 µM | 0.0138 µM | 0.0459 µM | 0.0336 µM | 0.503 µM | – | 0.0474 µM | < 0.0142 µM | 0.0679 µM | 0.0271 µM | 0.0806 µM | 0.316 µM | 25.5 µM | 0.0408 µM | 2.38 µM | 0.312 µM | 14.5 µM |
| Cc1cc(I)cc(CN(C)CCCN2CCCCCCC2)c1O | 13.8 µM | 28 µM | 2.26 µM | 7.97 µM | 15.5 µM | 33.2 µM | 13.7 µM | 28.3 µM | 19.3 µM | 38.4 µM | 20.1 µM | 45.3 µM | 15.1 µM | 29.2 µM | 13.4 µM | 27 µM | 15 µM | 29.2 µM | 16.2 µM | 34.3 µM |
| CCN(CC)CCOc1ccc(-c2nc3cc(Cl)ccc3s2)cc1 | 1.47 µM | 2.84 µM | 1.56 µM | 5.12 µM | 1.73 µM | 3.21 µM | 1.59 µM | 2.93 µM | 1.8 µM | 3.53 µM | 1.97 µM | 3.87 µM | 1.6 µM | 2.94 µM | 1.31 µM | 2.61 µM | 1.58 µM | 2.99 µM | 1.78 µM | 3.62 µM |
| Cc1c([N+](=O)[O-])ccc2c(NCCCN(C)C)ccnc12 | – | > 100 µM | – | > 100 µM | – | 29.9 µM | – | 33.2 µM | – | 31.9 µM | – | > 100 µM | – | 31.2 µM | – | 80.6 µM | – | > 100 µM | – | 31.4 µM |
| CCN(CC)CCCC(CNc1ccnc2cc(Cl)ccc12)c1ccc(Cl)cc1 (stereo not given) | 1.48 µM and 0.547 µM | 3.2 µM and 1.91 µM | 1.75 µM and 1.52 µM | 3.79 µM and 3.62 µM | 0.227 µM and 0.203 µM | 0.612 µM and 0.405 µM | 1.9 µM and 1.74 µM | 3.95 µM and 3.82 µM | 1.69 µM and 0.859 µM | 3.51 µM and 2.55 µM | 2.02 µM and 2.13 µM | 5.14 µM and 5.87 µM | 1.23 µM and 1.52 µM | 2.67 µM and 3.07 µM | 1.67 µM and 0.83 µM | 3.24 µM and 2.08 µM | 1.54 µM and 0.95 µM | 3.01 µM and 2.48 µM | 1.97 µM and 0.583 µM | 3.74 µM and 1.61 µM |
| CC(O)CCC(=O)c1ccoc1 (stereo not given) | – | 3930 µM | – | 7890 µM | – | > 10000 µM | – | > 10000 µM | – | 8270 µM | – | > 9750 µM | – | > 10000 µM | – | > 10000 µM | – | > 10000 µM | – | > 10000 µM |
| Cn1nc(N)c2cc([C@@H]3Nc4ccc5[nH]ncc5c4[C@H]4C5CCC(C5)[C@@H]34)ccc21 (stereo not given in full) | 0.334 µM | 33.4 µM | 0.381 µM | 6.46 µM | 0.372 µM | 9.98 µM | 0.402 µM | 11.6 µM | 0.474 µM | 24 µM | 0.4 µM | 10 µM | 0.333 µM | 5.09 µM | 19.6 µM | > 100 µM | 0.618 µM | 23.2 µM | 15.9 µM | 59.5 µM |
| Cc1ccc(C)c(C2=C(c3cn(C)c4ccccc34)C(=O)NC2=O)c1 | > 23.4 µM | > 25 µM | 6.7 µM | 16.2 µM | > 25 µM | > 25 µM | > 17.4 µM | > 25 µM | > 25 µM | > 25 µM | > 25 µM | > 25 µM | > 16.4 µM | > 25 µM | > 25 µM | > 25 µM | > 25 µM | > 25 µM | > 25 µM | > 25 µM |
| Clc1nc2ccccc2nc1CI | 5.65 µM | 13.2 µM | 2.86 µM | 18.2 µM | 3.32 µM | 12.6 µM | 11 µM | 28.5 µM | 1.77 µM | 3.58 µM | 4.1 µM | 18.1 µM | 2.34 µM | 6.27 µM | 3.94 µM | 8.7 µM | 7.38 µM | 20.8 µM | 12.9 µM | 26.2 µM |
| Cc1nc2c(-c3cnc(N)nc3)nc(N3CCOCC3)nc2n1C(C)C | – | 1.42 µM and 2.94 µM | 0.222 µM and 0.23 µM | > 5.87 µM and 20.9 µM | – | 2.12 µM and 5.91 µM | – | > 100 µM | 0.137 µM and 0.138 µM | – | – | 4.81 µM | – | 1.17 µM and 0.481 µM | – | 0.6 µM and 0.505 µM | – | > 10 µM and 37.7 µM | – | – |
| CNC(=O)N(C)N=NCCCl | – | > 100 µM | – | > 100 µM | – | > 100 µM | – | > 100 µM | – | > 100 µM | – | > 100 µM | – | > 100 µM | – | > 100 µM | – | > 100 µM | – | > 100 µM |
| CCN1CCN(C(c2ccc(C(F)(F)F)cc2)c2ccc3cccnc3c2O)CC1 (stereo not given) | 2.55 µM | 9.36 µM | 2.09 µM | 5.6 µM | 1.7 µM | 5.87 µM | 0.412 µM | 10.8 µM | 5.01 µM | 18 µM | 1.77 µM | 10.9 µM | 1.68 µM | 10.1 µM | 10 µM | 22 µM | 0.658 µM | 11.4 µM | 2.06 µM | 6.69 µM |
| COc1ccc(C(C)=O)cc1N1C(=O)C2C(C1=O)C1(c3ccccc3)C(=O)C2(c2ccccc2)C(c2ccc(C)cc2)=C1c1ccc(C)cc1 (stereo not given) | 17.6 µM | > 100 µM | > 100 µM | > 100 µM | – | – | > 100 µM | > 100 µM | > 100 µM | > 100 µM | > 100 µM | > 100 µM | > 100 µM | > 100 µM | > 100 µM | > 100 µM | > 100 µM | > 100 µM | > 100 µM | > 100 µM |
| COc1cc(N(CCC#N)CCC#N)ccc1/C(N=Nc1ccc([N+](=O)[O-])cc1)=N/NC(=O)c1cc(Br)ccc1O | 65.9 µg/mL | > 150 µg/mL | 49.2 µg/mL | > 150 µg/mL | 44.5 µg/mL | 148 µg/mL | 33.8 µg/mL | 107 µg/mL | 53.4 µg/mL | > 150 µg/mL | 40.1 µg/mL | 116 µg/mL | 33.2 µg/mL | 122 µg/mL | – | – | 57.3 µg/mL | > 150 µg/mL | 52.3 µg/mL | > 150 µg/mL |
| O=C1c2cccc(NCCCNCCO)c2C(=O)c2cccc(NCCCNCCO)c21 | – | – | – | 3.86 µM and 6.02 µM | – | 4.3 µM and 8.78 µM | – | 4 µM and 4.23 µM | – | 1.6 µM | – | 28.6 µM | – | 4.13 µM and 2.84 µM | – | 8.6 µM and 13.4 µM | 0.536 µM and 1.4 µM | 2.13 µM and 4.46 µM | – | 11.2 µM and 14 µM |
